Measurements published in US20120164083A1, “Sweetness Enhancers Including Rebaudioside A or D” (Redpoint Bio Corporation, priority 2009, published 2012).
Where “and” joins values, the source holds several entries; their conditions need not be identical. Equal values may be shown once. Entries after “also recorded” stand apart in the source; their conditions may differ.

Columns and labels:
Assay type in all cases: in vivo, human
expert taste panel [1] = experiment: double-blind controlled sweetness intensity test of solutions, sequential monadic, sip and spit (Example 1 protocol); settings: for sweetness of the solution compared with 7% (w/v-%) fructose solution: 300 μM in 5% (w/v-%) fructose solution; for sweetness of the solution compared with 7% (w/v-%) sucrose solution: 300 μM in 5% (w/v-%) sucrose solution, 20 judges; for mean sweetness intensity score: scale 0 to 8
expert taste panel [2] = experiment: double-blind controlled sweetness intensity test of enhancer combinations, taste and swallow (Example 12 protocol); settings: 5% (w/v-%) sucrose solution alone; scale 0 to 8
Method: The sweetness enhancing effect of the combination of 40 μM Reb A (purity>95%) and 300 μM Reb C (Chromadex, CA; purity 94.9%; 2.9% impurities other than water) on 5% (w/v-%) sucrose solution was evaluated in a double-blind controlled test conducted according to the following protocol. Four products were evaluated by trained judges as follows: • low concentration sucrose (5% w/v) • low concentration sucrose+sweetness enhancer 1 (40 μM Reb A) • low concentration sucrose+sweetness enhancer 2 (300 μM Reb C) • low concentration sucrose+sweetness enhancer 1+sweetness enhancer 2
The products were evaluated using a sequential monadic test protocol. Subjects were given three 10 ml samples to evaluate. Each subject was directed to taste and swallow each sample and then assess the sweetness intensity of the sample. The intensity was rated on a score card by marking a numerical value along a scale from 0 to 8 (e.g., 0=none, 2=slight, 4=definite, 8=very strong). Following the decision regarding the sweetness intensity, subjects were instructed to vigorously rinse their mouth with water. Subjects then were given unsalted crackers to cleanse the palate. […] A second sample was then presented and evaluated as above and the same procedure was followed until all three products were evaluated. […]

subjects = experiment: qualitative taste evaluation of Reb C water solutions (forced-choice and open report, Example 3); settings: for qualitative taste description: one line per subject
Method: Subjects were asked to sip most or all of the 10 ml from the first cup, swish the liquid in their oral cavity, and expectorate into a cup, then rinse their mouths vigorously with water. Soon thereafter, the contents of the second cup were sampled in the same manner. Then, subjects were asked to choose the sweeter of the two samples, or if not sweet, to describe the qualitative taste profile of the sample having a detectable taste. […] The subjects have the following qualitative taste descriptions: […]

expert taste panel [3] = experiment: double-blind controlled sweetness intensity test in iced tea, taste and swallow (Example 6 protocol)
Method: The sweetness enhancing effect of 300 μM Reb C (Chromadex, CA; purity 94.9%; […]) (equivalent to the sweetness intensity of an 8% (w/v-%) sucrose solution) was evaluated in a double-blind controlled test conducted according to the following protocol. Three products were evaluated by trained judges as follows: • high concentration HFCS (14.29% w/v; equivalent to 11% w/v sucrose solution) • low concentration HFCS (10.39% w/v; equivalent to 8% w/v sucrose solution) • low concentration HFCS+sweetness enhancer (test compound)
The products were evaluated using a sequential monadic test protocol. Subjects were given three 10 ml samples to evaluate. Each subject was directed to taste and swallow each sample and then assess the sweetness intensity of the sample. The intensity was rated on a score card by marking a numerical value along a scale from 0 to 8 (e.g., 0=none, 2=slight, 4=definite, 8=very strong). Following the decision regarding the sweetness intensity, subjects were instructed to vigorously rinse their mouth with water. Subjects then were given unsalted crackers to cleanse the palate. A period of 10 minutes elapsed between presentations of each sample to reduce the potential influence of residual taste effects. A second sample was then presented and evaluated as above and the same procedure was followed until all three products were evaluated. […]

panelists = experiment: quantitative flavor profile by trained panelists (Example 11)
Method: The taste of 150, 300, and 600 μM Reb C was evaluated by a test group. 10 panelists were trained over a period of a few weeks to provide a quantitative flavor profile of Reb C. Panelists first were trained using standard tastants representing the different taste modalities given in FIG. 10 (i.e., sweet, bitter, salt, sour, and licorice). They then were trained to use the scales when flavors were mixed together. All intensity ratings are on scales ranging from 0 (no taste) to 8 (highest intensity). The intensity rating for sweet is essentially the same as used in Examples 1 and 6. The taste profiles were obtained for 150, 300, and 600 μM Reb C. Reb A (0.2 mg/ml, a concentration used in some food/beverage applications for sweetening) was also evaluated in the test for comparison. The scale is not linear at the bottom. A rating of 1 is around the threshold for sweetness detection.

[4] = 300 μM in 8% (w/v-%) sucrose solution
[5] = 250 μM water solution, five subjects

Row | Compound | sweetness of the solution compared with 7% (w/v-%) fructose solution (expert taste panel [1]) | sweetness of the solution compared with 7% (w/v-%) sucrose solution (expert taste panel [1]) | off-tastes (expert taste panel [1]; [4]) | sweetness of the solution compared with 11% (w/v-%) sucrose solution (expert taste panel [1]; [4]) | mean sweetness intensity score (expert taste panel [1]; 8% (w/v-%) sucrose solution with 300 μM Dulc A) | mean sweetness intensity (expert taste panel [2]) | mean sweetness intensity score (expert taste panel [1]; 8% (w/v-%) sucrose solution alone) | mean sweetness intensity score (expert taste panel [1]; 11% (w/v-%) sucrose solution alone) | forced-choice identification of the sample against water (subjects; [5]) | qualitative taste description (subjects; [5]) | qualitative taste description (subjects; 250 and 300 μM in water, four subjects) | sweetness of the solution compared with 8% and 11% (w/v-%) sucrose solutions (expert taste panel [1]; 150 μM in 8% (w/v-%) sucrose solution) | mean sweetness intensity score (expert taste panel [1]; 8% (w/v-%) sucrose solution with 150 μM Reb C) | sweetness compared with 8% and 11% (w/v-%) sucrose (expert taste panel [3]; 300 μM in iced tea with 8% (w/v-%) sucrose) | sweetness compared with 14.29% (w/v-%) HFCS solution (equivalent to 11% sucrose) (expert taste panel [3]; 300 μM in iced tea with 10.39% (w/v-%) HFCS) | unpleasant tastes, bitter and licorice (panelists; 150, 300 and 600 μM alone) | intrinsic sweetness (panelists; 150, 300 and 600 μM, scale 0 to 8) | unpleasant tastes, bitter and licorice (panelists; combined with sugar)
1 | C=C1C[C@@]23CC[C@H]4[C@@](C)(CCC[C@@]4(C)C(=O)O[C@@H]4O[C@H](CO)[C@@H](O)[C@H](O)[C@H]4O)[C@@H]2CC[C@]1(O[C@@H]1O[C@H](CO)[C@@H](O)[C@H](O)[C@H]1O[C@@H]1O[C@@H](C)[C@H](O)[C@@H](O)[C@H]1O)C3 [Dulc A, dulcoside A] | achieved that of a 7% (w/v-%) fructose solution | achieved that of a 7% (w/v-%) sucrose solution | No off-tastes were detected | approached that of an 11% (w/v-%) sucrose solution | 6.3 | – | – | – | – | – | – | – | – | – | – | – | – | –
2 | OC[C@H]1O[C@@](CO)(O[C@H]2O[C@H](CO)[C@@H](O)[C@H](O)[C@H]2O)[C@@H](O)[C@@H]1O [sucrose, α-D-glucopyranosyl-(1→2)-β-D-fructofuranose, reference compound] | – | – | – | – | – | about 4 | 5.30 and 5.0 | 6.95 and 6.7 | – | – | – | – | – | – | – | – | – | –
3 | rebaudioside C [Reb C] | close to that of a 7% (w/v-%) fructose solution | indistinguishable from that of a 7% (w/v-%) sucrose solution | – | close to that of an 11% (w/v-%) sucrose solution | – | – | – | – | All subjects correctly identified the sample containing Reb C | Metallic, not sweet; also recorded: Aversive (“Nasty”); also recorded: Slight sweet, astringent; also recorded: Faintly sweet; also recorded: Slight sweet/licorice | Both concentrations bitter and/or licorice | between that of the 8% (w/v-%) sucrose solution and that of an 11% (w/v-%) sucrose solution | 6.10 | between that of the 8% (w/v-%) solution and that of an 11% (w/v-%) sucrose solution | indistinguishable from that of a 14.29% (w/v-%) HFCS solution | barely detected | little or no intrinsic sweetness | undetected
